Results on 21 molecules are retold here after patent publication US10138227B2, “Heteroaryl substituted pyridines and methods of use” (AbbVie S.à.r.l., priority 2016, dated 2018).

For this assay, the target named is T1, CFTR ΔF508 mutant (Homo sapiens, UniProt P13569, DEL508-508).
T1 construct: expressed in transfected cells; host or cells: CFBE41o- cells transduced with adenoviral vectors
As to the kind of experiment: YFP-halide influx assay for the CFTR-ΔF508 mutation. The class given is cell-based. The settings on record: CFBE41o- cells expressing CFTR ΔF508 and YFP reporter, forskolin 10.67 μM; for EC50: (1-F/F0) vs concentration. The source says:
The YFP halide influx assay measured the functionality of the cystic fibrosis Transmembrane Conductance regulator (CFTR) channels in the cystic fibrosis bronchial epithelium cell line CFBE41o-. The assay was used to evaluate the capacity of compounds to increase the open probability of existing CFTR channels in the membrane. It makes use of the observation that the yellow fluorescent protein (YFP) variant YFP H148Q, I152L, F47L has its fluorescence substantially quenched by halide ions like Cl^− and I^− (Galietta, L. J. V., Haggie, P. M., Verkman, A. S., 2001. Green fluorescent protein-based halide indicators with improved chloride and iodide affinities. FEBS Lett. 499, 220-224. doi:10.1016/S0014-5793(01)02561-3; Nagai, T., Ibata, K., Park, E. S., Kubota, M., Mikoshiba, K., Miyawaki, A., 2002. A variant of yellow fluorescent protein with fast and efficient maturation for cell-biological applications. Nat. Biotechnol. 20, 87-90. doi:10.1038/nbt0102-87).
For this purpose, CFBE410-cells were seeded in 384 well plates (3000 CFBE cells/well). One day after seeding, the CFBE cells were transduced with adenoviral vectors that direct the expression of the CFTR ΔF508 mutant and of the YFP reporter. Cells were incubated at 27° C., 5% CO2 for 24 hours so as to allow for the proper folding and migration to the membrane of the CFTR channel or treated with a CFTR modulator during 24 hours at 37° C.
The I-induced quenching of fluorescence was recorded on an immediately after injection of iodide for 2 minutes on an FDSS/μCell (Hamamatsu). The capacity of a compound to increase the channel opening was directly correlated with the decrease in fluorescence, and was expressed as (1-(fluorescence after 36 seconds (F)/fluorescence before injection (F0))) and an EC50 was derived from a (1-F/F0) vs compound concentration plot.

Molecules are shown by their SMILES. Bounds are passed on as bounds.

T1 sequence (P13569 with tags, fused parts or gaps DEL508-508): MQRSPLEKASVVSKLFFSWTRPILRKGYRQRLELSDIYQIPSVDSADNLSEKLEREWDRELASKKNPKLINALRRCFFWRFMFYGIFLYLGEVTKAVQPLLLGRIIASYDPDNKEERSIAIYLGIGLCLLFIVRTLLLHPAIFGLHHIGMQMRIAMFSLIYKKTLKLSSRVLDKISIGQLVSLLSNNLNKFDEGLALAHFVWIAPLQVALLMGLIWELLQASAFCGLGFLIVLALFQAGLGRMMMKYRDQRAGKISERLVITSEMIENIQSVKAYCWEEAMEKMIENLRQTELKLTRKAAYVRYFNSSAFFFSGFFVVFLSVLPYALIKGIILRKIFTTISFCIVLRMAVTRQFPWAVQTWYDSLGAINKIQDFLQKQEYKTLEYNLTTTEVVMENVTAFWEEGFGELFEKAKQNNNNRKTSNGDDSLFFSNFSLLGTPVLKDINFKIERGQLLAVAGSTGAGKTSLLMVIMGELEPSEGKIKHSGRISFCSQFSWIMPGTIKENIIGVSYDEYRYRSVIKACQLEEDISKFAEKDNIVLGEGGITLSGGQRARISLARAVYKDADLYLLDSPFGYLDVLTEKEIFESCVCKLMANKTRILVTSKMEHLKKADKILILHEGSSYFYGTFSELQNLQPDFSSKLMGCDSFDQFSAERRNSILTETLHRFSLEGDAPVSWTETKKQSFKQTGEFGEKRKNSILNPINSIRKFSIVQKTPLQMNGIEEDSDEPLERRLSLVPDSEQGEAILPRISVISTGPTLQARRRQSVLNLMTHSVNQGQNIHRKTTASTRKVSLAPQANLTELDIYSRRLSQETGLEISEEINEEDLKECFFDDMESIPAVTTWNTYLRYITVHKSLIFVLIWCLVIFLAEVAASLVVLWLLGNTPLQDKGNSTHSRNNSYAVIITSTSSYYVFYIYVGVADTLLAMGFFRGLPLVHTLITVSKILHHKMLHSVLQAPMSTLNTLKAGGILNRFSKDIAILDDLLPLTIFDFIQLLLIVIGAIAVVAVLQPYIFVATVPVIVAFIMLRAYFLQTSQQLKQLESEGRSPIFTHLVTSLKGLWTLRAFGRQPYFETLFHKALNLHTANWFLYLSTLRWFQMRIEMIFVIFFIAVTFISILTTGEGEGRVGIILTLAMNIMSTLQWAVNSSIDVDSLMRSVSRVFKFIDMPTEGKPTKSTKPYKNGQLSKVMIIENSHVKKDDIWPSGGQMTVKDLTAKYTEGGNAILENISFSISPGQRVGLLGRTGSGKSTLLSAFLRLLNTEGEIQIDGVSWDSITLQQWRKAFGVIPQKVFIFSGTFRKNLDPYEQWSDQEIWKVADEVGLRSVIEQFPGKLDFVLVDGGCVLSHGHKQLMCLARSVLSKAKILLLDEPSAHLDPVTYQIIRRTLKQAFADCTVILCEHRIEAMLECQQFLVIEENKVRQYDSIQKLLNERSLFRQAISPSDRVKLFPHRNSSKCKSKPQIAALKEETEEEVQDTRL

Turning to `Nc1cc(S(=O)(=O)c2ccc(OC(F)(F)F)cc2)cnc1-c1nnc(COC(F)(F)F)o1` [Compound 15, 5-[4-(trifluoromethoxy)benzene-1-sulfonyl]-2-{5-[(trifluoromethoxy)methyl]-1,3,4-oxadiazol-2-yl}pyridin-3-amine], the “% Activation” value came to 113.65% and the EC50 is 6.94 nM.
Regarding `COCc1nnc(-c2ncc(S(=O)(=O)c3ccc(OC(F)(F)F)cc3)cc2N)s1` [Compound 26, 2-[5-(methoxymethyl)-1,3,4-thiadiazol-2-yl]-5-[4-(trifluoromethoxy)benzene-1-sulfonyl]pyridin-3-amine], the “% Activation” value is listed as 101.69% and a half-maximal response (EC50) required 3.33 nM.
In the same order, the values of `Nc1cc(S(=O)(=O)c2ccccc2OC(F)(F)F)cnc1-c1nnc(CO)o1` [Compound 59, (5-{3-amino-5-[2-(trifluoromethoxy)benzene-1-sulfonyl]pyridin-2-yl}-1,3,4-oxadiazol-2-yl)methanol] are 106.56% and 4.25 nM.
In the same order, the values of `Nc1cc(S(=O)(=O)c2ccc(OC(F)(F)F)cc2)c(Br)nc1-c1nnc(CO)o1` [Compound 63, (5-{3-amino-6-bromo-5-[4-(trifluoromethoxy)benzene-1-sulfonyl]pyridin-2-yl}-1,3,4-oxadiazol-2-yl)methanol] are 109.95% and < 0.39 nM.
Taken in the same sequence, the figures for `Nc1cc(S(=O)(=O)c2ccc(OC(F)(F)F)cc2)cnc1-c1nc(C2CCOC2)no1` (stereo not drawn) [Compound 53, 2-[3-(oxolan-3-yl)-1,2,4-oxadiazol-5-yl]-5-[4-(trifluoromethoxy)benzene-1-sulfonyl]pyridin-3-amine] were 15.28% and > 4990 nM.
For the molecule `COCCc1noc(-c2ncc(S(=O)(=O)c3ccc(OC(F)(F)F)cc3)cc2N)n1` [Compound 55, 2-[3-(2-methoxyethyl)-1,2,4-oxadiazol-5-yl]-5-[4-(trifluoromethoxy)benzene-1-sulfonyl]pyridin-3-amine], the “% Activation” value was found to be 2.76% and the concentration for a half-maximal effect (EC50) was > 4990 nM.
Taken in the same sequence, the figures for `Nc1cc(S(=O)(=O)c2ccc(OC(F)(F)F)cc2)cnc1-c1nnc(C[C@@H]2CCCO2)s1` [Compound 31, 2-(5-{[(2S)-oxolan-2-yl]methyl}-1,3,4-thiadiazol-2-yl)-5-[4-(trifluoromethoxy)benzene-1-sulfonyl]pyridin-3-amine] were 102.85% and 36.9 nM.
In the same order, the values of `Nc1cc(S(=O)(=O)c2ccc(OC(F)(F)F)cc2)cnc1-c1nnco1` [Compound 6, 2-(1,3,4-oxadiazol-2-yl)-5-[4-(trifluoromethoxy)benzene-1-sulfonyl]pyridin-3-amine] are 86.03% and 78.1 nM.
Consider `Nc1cc(S(=O)(=O)c2ccc(OC(F)(F)F)cc2)cnc1-c1nnc(C2CCCCC2)o1` [Compound 10, 2-(5-cyclohexyl-1,3,4-oxadiazol-2-yl)-5-[4-(trifluoromethoxy)benzene-1-sulfonyl]pyridin-3-amine], for which the “% Activation” value is 106.5% and the response was half-maximal at 14.9 nM (EC50).
In the same order, the values of `COCCOCc1nnc(-c2ncc(S(=O)(=O)c3ccc(OC(F)(F)F)cc3)cc2N)o1` [Compound 33, 2-{5-[(2-methoxyethoxy)methyl]-1,3,4-oxadiazol-2-yl}-5-[4-(trifluoromethoxy)benzene-1-sulfonyl]pyridin-3-amine] are 103.5% and 39.8 nM.
In the same order, the values of `Nc1cc(S(=O)(=O)c2ccc(OC(F)(F)F)cc2)cnc1-c1nc(C2CC2)no1` [Compound 52, 2-(3-cyclopropyl-1,2,4-oxadiazol-5-yl)-5-[4-(trifluoromethoxy)benzene-1-sulfonyl]pyridin-3-amine] are 3.42% and > 4990 nM.
Taken in the same sequence, the figures for `CCOCc1nnc(-c2ncc(S(=O)(=O)c3ccc(OC(F)(F)F)cc3)cc2N)s1` [Compound 25, 2-[5-(ethoxymethyl)-1,3,4-thiadiazol-2-yl]-5-[4-(trifluoromethoxy)benzene-1-sulfonyl]pyridin-3-amine] were 104.42% and 4.4 nM.
Take `Nc1cc(S(=O)(=O)c2ccc(OC(F)(F)F)cc2)cnc1-c1nc(C2CCOCC2)no1` [Compound 48, 2-[3-(oxan-4-yl)-1,2,4-oxadiazol-5-yl]-5-[4-(trifluoromethoxy)benzene-1-sulfonyl]pyridin-3-amine]: the “% Activation” value was determined as 6.28% and the concentration for a half-maximal effect (EC50) was > 4990 nM.
Taken in the same sequence, the figures for `Nc1cc(S(=O)(=O)c2ccc(OC(F)(F)F)cc2)cnc1-c1nnc(CNC(=S)C2CC2)s1` [Compound 18, N-[(5-{3-amino-5-[4-(trifluoromethoxy)benzene-1-sulfonyl]pyridin-2-yl}-1,3,4-thiadiazol-2-yl)methyl]cyclopropanecarbothioamide] were 106.2% and 9.09 nM.
In the same order, the values of `CO[C@H](C)c1nnc(-c2ncc(S(=O)(=O)c3ccc(OC(F)(F)F)cc3)cc2N)o1` [Compound 34, 2-{5-[(1R)-1-methoxyethyl]-1,3,4-oxadiazol-2-yl}-5-[4-(trifluoromethoxy)benzene-1-sulfonyl]pyridin-3-amine] are 102.19% and 21.3 nM.
Taken in the same sequence, the figures for `CC(C)(O)c1nnc(-c2ncc(S(=O)(=O)c3ccc(OC(F)(F)F)cc3)cc2N)o1` [Compound 43, 2-(5-{3-amino-5-[4-(trifluoromethoxy)benzene-1-sulfonyl]pyridin-2-yl}-1,3,4-oxadiazol-2-yl)propan-2-ol] were 110.8% and < 0.77 nM.
Consider `Nc1cc(S(=O)(=O)c2ccc(OC(F)(F)F)cc2)cnc1-c1nnc([C@@H](O)Cc2ccccc2)o1` [Compound 44, (1S)-1-(5-{3-amino-5-[4-(trifluoromethoxy)benzene-1-sulfonyl]pyridin-2-yl}-1,3,4-oxadiazol-2-yl)-2-phenyl ethan-1-ol], for which the “% Activation” value came out at 105.25% and the midpoint of the response, the EC50, lay at 1.63 nM.
In the same order, the values of `CN(Cc1ccccc1)S(=O)(=O)c1cnc(-c2nnc(CO)o2)c(N)c1` [Compound 60, 5-amino-N-benzyl-6-[5-(hydroxymethyl)-1,3,4-oxadiazol-2-yl]-N-methylpyridine-3-sulfonamide] are 122.9% and 15.3 nM.
As for `Nc1cc(S(=O)(=O)c2ccc(OC(F)(F)F)cc2)cnc1-c1nnc(COc2ccccc2)o1` [Compound 13, 2-[5-(phenoxymethyl)-1,3,4-oxadiazol-2-yl]-5-[4-(trifluoromethoxy)benzene-1-sulfonyl]pyridin-3-amine], the “% Activation” value is listed as 100.57% and the response was half-maximal at 327 nM (EC50).
Turning to `CC(C)(C)c1noc(-c2ncc(S(=O)(=O)c3ccc(OC(F)(F)F)cc3)cc2N)n1` [Compound 54, 2-(3-tert-butyl-1,2,4-oxadiazol-5-yl)-5-[4-(trifluoromethoxy)benzene-1-sulfonyl]pyridin-3-amine], the “% Activation” value turned out to be 12.02% and the EC50 is > 4990 nM.
In the same order, the values of `Nc1cc(S(=O)(=O)c2ccc(OC(F)(F)F)cc2)cnc1-c1nnc(COC2CCCC2)o1` [Compound 14, 2-{5-[(cyclopentyloxy)methyl]-1,3,4-oxadiazol-2-yl}-5-[4-(trifluoromethoxy)benzene-1-sulfonyl]pyridin-3-amine] are 116.8% and 67.9 nM.
